# Data: patent US20110280848A1, “COMPOSITION COMPRISING CHICORIC ACID AND/OR DERIVATIVES THEREOF” (NESTEC S.A., priority 2009, published 2011)
# Tested on: Nrf2-ARE pathway (AREc32 cells)
# Experiment: Antioxidant Responsive Element (ARE) luciferase assay
# Format: cell-based, human
# Settings: for F/C (Nrf2-luciferase reporter activity): 24 h
# Text: The pGL-8×ARE which contains eight copies of the ARE present in rat glutathione-S-transferase A2 (GSTA2) along with the pcDNA3.1 plasmid containing the neomycin selectable marker was stably transfected into human MCF7 cells (Wang et al., Cancer Res. 66, 10983-10994, 2006). ARE (antioxidant-responsive element) is the binding site of the transcription factor Nrf2 which regulates the genes involved in detoxification and endogenous defense against oxidative stress. The plasmid pGL-8×ARE contains a luciferase gene downstream of the eight Nrf2 binding sites that allows monitoring Nrf2 activity. For treatment with chicoric acid and related compounds, the AREc 32 cells were seeded 96-well microtiter plates in DMEM growth medium. After treatment of 24 h with the different preparations, firefly luciferase activity was determined.
smiles,measurement,setting,value
O=C(/C=C/c1ccc(O)c(O)c1)O[C@@H](C(=O)O)[C@@H](OC(=O)/C=C/c1ccc(O)c(O)c1)C(=O)O [chicoric acid],F/C (Nrf2-luciferase reporter activity),100 μg/ml,2580
same,F/C (Nrf2-luciferase reporter activity),200 μg/ml,4364
same,F/C (Nrf2-luciferase reporter activity),400 μg/ml,8810
same,F/C (Nrf2-luciferase reporter activity),600 μg/ml,558
same,F/C (Nrf2-luciferase reporter activity),800 μg/ml,251
same,F/C (Nrf2-luciferase reporter activity),1000 μg/ml,346
same,Response in Nrf2-luciferase reporter activity,saturation inactivation response at higher doses,positive dose-dependent response
